Assay [1] is filed under the species Homo sapiens. Description: Antitumor activity in renal cell carcinoma patient with previous cytokine therapies assessed as progression free survival. Type of assay: functional.
Assay [2] is filed under the species Homo sapiens. Description: Antitumor activity in renal cell carcinoma patient with previous sunitinib treatment assessed as progression free survival. Type of assay: functional.
The species named for assay [3] is Homo sapiens. The experiment in a line: Antitumor activity in patient with metastatic renal cell carcinoma assessed as progression free survival. It counts as functional.
The species named for assay [4] is Homo sapiens. Description: Antitumor activity in patient with metastatic renal cell carcinoma assessed as overall survival. It counts as functional.
The species named for assay [5] is Homo sapiens. The experiment in a line: Antitumor activity in renal cell carcinoma patient without previous VEGFR TKI treatment assessed as progression free survival (reference value: 1.9 months). It counts as functional.
The species named for assay [6] is Homo sapiens. The experiment in a line: Antitumor activity in renal cell carcinoma patient with 2 previous VEGFR TKI treatment assessed as progression free survival (reference value: 1.8 months). It counts as functional.
For assay [7], the system named is CAKI-2. Description: Antitumor activity against human Caki2 cells xenografted in nuded mouse assessed as inhibition of tumor growth at 10 mg/kg, po. It counts as functional. The note with it: CAKI-2, po, read-out: TGI.
For assay [8], the species on record is Homo sapiens. The experiment in a line: Antitumor activity in treatment-naive and cytokine-refractory patient with renal cell carcinoma assessed as progression free survival (reference value: 4.2 months). It counts as functional.
Assay [9] is filed under the species Homo sapiens. The experiment in a line: Antitumor activity in patient with renal cell carcinoma assessed as progression free survival during phase 3 non-inferiority trial. It counts as functional.
The species entered for assay [10] is Homo sapiens. The experiment in a line: Antitumor activity in patient with renal cell carcinoma assessed as overall survival during phase 3 non-inferiority trial. Type of assay: functional.
The subject of assay [11] is HUVEC. The experiment in a line: cells. To be noted: Homo sapiens.
Assay [12] relates to HUVEC. Description: cells. To be noted: Homo sapiens. This is another data set of the same source.
The species entered for assay [13] is Homo sapiens. The experiment in a line: Antitumor activity in patient with renal cell carcinoma assessed as progression free survival (reference value: 2.8 months). Type of assay: functional.
The species entered for assay [14] is Homo sapiens. Description: Antitumor activity in patient with renal cell carcinoma assessed as overall survival (reference value: 15.2 months). Type of assay: functional.
For assay [15], the species on record is Homo sapiens. The experiment in a line: Antitumor activity in patient with metastatic renal cell carcinoma assessed as progression free survival during phase 3 trial. It counts as functional.
Assay [16] is filed under the species Homo sapiens. The experiment in a line: Antitumor activity in patient with metastatic renal cell carcinoma assessed as objective response during phase 3 trial. It counts as functional.
The species entered for assay [17] is Homo sapiens. The experiment in a line: Antitumor activity in patient with metastatic renal cell carcinoma assessed as overall survival during phase 3 trial. Type of assay: functional.
The species entered for assay [18] is Homo sapiens. The experiment in a line: Antitumor activity in patient with renal cell carcinoma assessed as progression free survival during phase 2 trial. Type of assay: functional.
The species named for assay [19] is Homo sapiens. Description: Antitumor activity in patient with metastatic renal cell carcinoma assessed as progression free survival co-treated with IFNalpha during phase 3 trial. Type of assay: functional.

As a reminder, the pIC50 is the IC50 on a negative log10 scale, so that one unit is a factor of ten. Low values mean a high IC50, high ones a low IC50.

The structures appear in SMILES notation. pIC50: −log10 of the molar value.

Take `CNC(=O)c1ccccc1Sc1ccc2c(/C=C/c3ccccn3)n[nH]c2c1` [AXITINIB]: the Survival is 12.1 months in assay [1] and 4.8 months in assay [2].
Regarding `COc1cc2nccc(Oc3ccc(NC(=O)C4(C(=O)Nc5ccc(F)cc5)CC4)cc3)c2cc1OC` [CABOZANTINIB], the Survival in assay [3] is on record as 7.4 months.
On to `CO[C@H]1C[C@@H]2CC[C@@H](C)[C@@](O)(O2)C(=O)C(=O)N2CCCC[C@H]2C(=O)O[C@H]([C@H](C)C[C@@H]2CC[C@@H](OCCO)[C@H](OC)C2)CC(=O)[C@H](C)/C=C(\C)[C@@H](O)[C@@H](OC)C(=O)[C@H](C)C[C@H](C)/C=C/C=C/C=C/1C` [EVEROLIMUS], for which the Survival is 16.5 months in assay [4], 3.9 months in assay [3], 5.4 months in assay [5] and 4 months in [6].
`Cc1ccc(Nc2nccc(N(C)c3ccc4c(C)n(C)nc4c3)n2)cc1S(N)(=O)=O` [PAZOPANIB]: the inhibition in vivo at 10 mg/kg in assay [7] was 77%. Further, the Survival is recorded as 9.2 months in [8], 8.4 months in assay [9] and 28.3 months in [10]. The values for the pIC50 in assay [11] and in [12] were 7.68 and 6.14, respectively.
Take `CNC(=O)c1cc(Oc2ccc(NC(=O)Nc3ccc(Cl)c(C(F)(F)F)c3)cc2)ccn1` [SORAFENIB]: the Survival was 5.5 months in [13], 17.8 months in assay [14], 6.5 months in [1] and 3.4 months in assay [2].
Regarding `CCN(CC)CCNC(=O)c1c(C)[nH]c(/C=C2\C(=O)Nc3ccc(F)cc32)c1C` [SUNITINIB], the Survival is 11 months in assay [15], 26.4 months in assay [17], 29.1 months in [10] and 7.8 months in assay [18]. In addition, the Activity in assay [16] is reported as 31%.
As for `CO[C@H]1C[C@@H]2CC[C@@H](C)[C@@](O)(O2)C(=O)C(=O)N2CCCC[C@H]2C(=O)O[C@H]([C@H](C)C[C@@H]2CC[C@@H](OC(=O)C(C)(CO)CO)[C@H](OC)C2)CC(=O)[C@H](C)/C=C(\C)[C@@H](O)[C@@H](OC)C(=O)[C@H](C)C[C@H](C)/C=C/C=C/C=C/1C` [TEMSIROLIMUS], the figures for the Survival in [15] and in assay [19] were 10.9 months and 8.4 months, respectively.

For the origin of these results see ChEMBL document CHEMBL4270503, “Recent developments in small molecule therapies for renal cell carcinoma” (Eur J Med Chem, 2017).
